In article PMC11589483, “Preparation and anti-colon cancer effect of a novel curcumin analogue (CA8): in vivo and in vitro evaluation” (Frontiers in Pharmacology, 2024):

Experiments:
Caco-2 xenograft tumors = assay: In vivo anticancer activity, Caco-2 xenograft
Experimental: Twenty 5-week-old male BALB nude mice purchased from SPF (Beijing) Biotechnology Co., Ltd. were used for the in vivo pharmacodynamic experiment of CA8. Caco-2 cells (6 × 10^6 cells in 100 μL PBS) were harvested and subcutaneously injected into the right hip of the mice. Then, they were divided into four groups when the tumor volume reached 100 mm^3 and treated with saline, CU (100 mg/kg), tegafur (50 mg/kg), or CA8 (100 mg/kg) via gavage every other day. Tumor size and body weight were measured and recorded every other day. At the end of the experiment, the mice were sacrificed and tumors were harvested and weighed. Tumor volumes were calculated by measuring length (L) and width (W) according to the following formula: V = 0.5 × L × W^2. The tumor tissue was embedded in paraffin, cut into slices, stained with HE, and observed under a light microscope.

Caco-2 cells = assay: Apoptosis assay (Annexin V-FITC/propidium iodide flow cytometry); assay type: cell-based, human; settings: 4, 8, 16 μM, 24 h
Experimental: The apoptotic effect of CA8 was assessed in Caco-2 cells according to the kit instructions. First, Caco-2 cells were treated with CA8 at dose of 4, 8, or 16 μM/L for 24 h. The cells were harvested and suspended in 500 μL annexin-binding buffer. Subsequently, the cells were stained with Annexin V-FITC for 15 min and then incubated with propidium iodide for 5 min at room temperature in the dark. Finally, all samples were evaluated via flow cytometry (FACS Calibur, BD, San Jose, CA, United States). The results obtained were analyzed using the FlowJo software, and the apoptotic rate was calculated.

[1] = test system: normal human liver cell line LO2; assay: MTT assay, normal liver cells LO2; assay type: cell-based
Experimental: (§1) The human cancer cell lines A549, HepG2, MCF-7, Caco-2, and HeLa and the normal human liver cell line LO2 were all obtained from Shanghai Cell Bank of China. All cells were cultured in RPMI 1640 or DMEM supplemented with 10% fetal bovine serum, 100 U/mL penicillin, and 100 μg/mL streptomycin and incubated at 37°C under 5% CO2 (HEPA incubator class100 Thermo company). The medium was replaced three times a week. Cells used in all were in the exponential growth phase.
(§2) The cell inhibition rate was evaluated using the MTT assay. Briefly, cells were seeded in a 96-well plate at a density of 3–4 × 10^3 cells per well and incubated at 37°C for 24 h. The MCACs to be tested were dissolved in dimethyl sulfoxide (DMSO, Merck, Germany) and diluted to five concentrations (3.75, 7.5, 15, 30, 60 μM/L) with RPMI 1640 medium, with each dose analyzed in quadruplicate. The concentration of DMSO was always maintained below 1‰, a concentration that is nontoxic to cells. After incubation for 24 or 48 h, MTT reagent (5 mg/mL) was added to each well and the samples were incubated for 3 h at 37°C in the dark. The absorbance of formazan crystals dissolved in 150 µL of DMSO was measured at 570 nm using a microplate reader to identify the cytotoxic effect of the analogues.

liver cancer cells HepG2 = assay: MTT antiproliferative assay, HepG2; assay type: cell-based; settings: Homo sapiens
Experimental: as §1, §2

KM mice = assay: Acute toxicity experiment; assay type: in vivo; set-up: ALT / AST / ALP / CREA / UA / UREA: unit not given here; settings: for tolerated dose: male, KM, 8 days; for ALP / ALT / AST / CREA / UA / UREA: serum, KM mice, Mean ± SE, n = 3
Experimental: All in vivo experimental protocols were approved by the animal care committee of the Southwest Medical University and conducted in strict accordance with the laboratory animal care and use of the adopted guidelines. […] Twenty-one male KM mice were obtained from the Animal Center of Southwest Medical University and subjected to 1 week of acclimatization before the experiment. Then, the mice were randomly divided into the different groups. CA8 was administered via intraperitoneal injection and oral administration to assess its safety. The oral and injection doses were 5, 50, and 300 mg/kg and 2, 10, and 50 mg/kg, respectively. The body weight of all animals was recorded every day, and their blood samples were collected to analyze relevant biochemical indicators on the 8th day of the experiment. The heart, liver, and kidney tissues of the mice were collected, embedded in paraffin, cut into slices, stained with hematoxylin and eosin (HE), and observed under a light microscope to determine potential pathological changes.

[2] = Solubility in water by HPLC; assay type: physicochemical; settings: 25°C, mass of solute dissolved at saturation in 100 g of solvent
Experimental: The solubility of the synthesized compounds in water was determined using high performance liquid chromatography (HPLC). First, 1.000 g of each compound was accurately weighed, placed in 100 g of water, and stirred at 25°C for a period of time. Then, the reaction system was allowed to stand for 1 h. The supernatant was quantitatively taken, diluted with methanol to volume, and centrifuged, and the solubility was determined using HPLC.

Ki67 = assay: Immunohistochemistry of tumor tissue; assay type: in vivo, BALB nude mice; settings: Caco-2 xenograft, 100 mg/kg

## COc1cc(/C=C2\CN(C(C)C)C/C(=C\c3cc(OC)c(O)c(OC)c3)C2=O)cc(OC)c1O [CA8]
Caco-2 xenograft tumors; Caco-2 xenograft nude mice, 100 mg/kg via gavage every other day
  tumor inhibition rate: 63.93%
Caco-2 xenograft tumors; Caco-2 xenograft, 100 mg/kg
  HE staining of tumor mass: large necrotic area in the tumor mass
Caco-2 xenograft tumors; Caco-2 xenograft, CA8 100 mg/kg, CU 100 mg/kg, tegafur 50 mg/kg, gavage every other day
  inhibitory effect on tumor growth: more significant inhibitory effect on tumor growth than CU and tegafur
Caco-2 xenograft tumors; nude mice, 13 days of therapy, 100 mg/kg gavage
  body weight change / toxicity during therapy: did not lead to a significant toxicity
Caco-2 cells
  induction of apoptosis: induced more apoptosis than CU at high and medium concentrations
[1]; 24 h
  IC50: 4.3 ± 0.21 µM
[1]; 48 h
  IC50: 2 ± 0.04 µM
Liver cancer cells HepG2; HepG2, 24 h
  IC50: 1.79 ± 1.32 µM
Liver cancer cells HepG2; HepG2, 48 h
  IC50: 1.84 ± 0.33 µM
KM mice; different doses, HE staining
  liver and kidney histopathology: no significant pathological damage
KM mice; mouse, in vivo, ip
  tolerated dose: ≤ 50 mg/kg
KM mice; mouse, in vivo, po
  tolerated dose: up to 300 mg/kg
KM mice; mouse, in vivo
  morbidity, death, behavior: No morbidities and deaths occurred
KM mice; single injection dose 2 mg/kg
  ALP: 220.33 ± 47.16
  ALT: 59.77 ± 3.00
  AST: 257.50 ± 114.60
  CREA: 17.13 ± 3.30
  UA: 171.93 ± 1.10
  UREA: 6.84 ± 0.29
KM mice; single injection dose 10 mg/kg
  ALP: 175.93 ± 95.23
  ALT: 54.87 ± 3.50
  AST: 100.13 ± 28.26
  CREA: 11.60 ± 1.60
  UA: 47.57 ± 14.59
  UREA: 6.84 ± 0.94
KM mice; single injection dose 50 mg/kg
  ALP: 226.47 ± 65.98
  ALT: 48.27 ± 2.77
  AST: 141.83 ± 50.47
  CREA: 12.13 ± 1.12
  UA: 55.77 ± 13.47
  UREA: 9.19 ± 1.02
KM mice; single oral dose 5 mg/kg
  ALP: 208.57 ± 19.55
  ALT: 49.70 ± 5.25
  AST: 209.40 ± 69.21
  CREA: 10.34 ± 0.87
  UA: 72.27 ± 18.54
  UREA: 6.70 ± 0.12
KM mice; single oral dose 50 mg/kg
  ALP: 299.77 ± 72.56
  ALT: 61.30 ± 1.30
  AST: 269.23 ± 67.81
  CREA: 12.50 ± 2.78
  UA: 124.17 ± 19.83
  UREA: 6.53 ± 0.65
KM mice; single oral dose 300 mg/kg
  ALP: 266.97 ± 26.38
  ALT: 44.63 ± 11.95
  AST: 277.57 ± 160.53
  CREA: 12.90 ± 1.61
  UA: 128.03 ± 33.61
  UREA: 7.80 ± 1.27
KM mice; single oral and injection doses
  blood parameters ALT, AST, ALP, CREA, UA, UREA vs control: no significant difference
[2]
  Solubility: 403.44 mg/100g
Ki67
  expression of Ki67 in tumor tissues: significantly reduced the expression of Ki67
